Measured values taken from patent publication US10065990B2, “Cyclic peptide compound, and preparation method, pharmaceutical composition and use thereof” (HANGZHOU GUANYU BIO-MEDICAL CO., LTD, priority 2013, dated 2018).
Read-outs that look alike come from different tables or passages of the source.

Experiments:
HDAC8 = target: T1, HDAC8 (Homo sapiens, UniProt Q9BY41); assay: HDAC biochemical activity measurement (fluorescent substrate deacetylation); conditions: 37° C. 30 minutes
T1 sequence (Q9BY41 1-377): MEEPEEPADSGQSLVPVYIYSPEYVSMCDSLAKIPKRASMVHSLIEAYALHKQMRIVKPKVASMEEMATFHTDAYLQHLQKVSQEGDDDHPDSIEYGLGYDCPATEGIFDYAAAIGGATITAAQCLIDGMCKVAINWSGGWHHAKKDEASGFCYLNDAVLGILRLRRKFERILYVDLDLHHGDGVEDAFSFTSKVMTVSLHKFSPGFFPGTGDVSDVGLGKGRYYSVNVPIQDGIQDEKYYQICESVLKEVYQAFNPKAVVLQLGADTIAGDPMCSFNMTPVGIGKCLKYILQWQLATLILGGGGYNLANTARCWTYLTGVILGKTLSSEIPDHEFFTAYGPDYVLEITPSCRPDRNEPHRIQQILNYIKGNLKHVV

[1] = system: H1975 (non-small cell lung adenocarcinoma); assay: MTT cancer cell growth inhibition; type: cell-based; conditions: Homo sapiens, NCI-H1975, 72 h, MTT, 72 hours incubation, H1975 cells; read-out: GI50 H1975
In short: (§1)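 Cells grown in DMEM or RPMI 1640 with 10% FBS were seeded at 1500/well and left overnight at 37° C., 5% CO2. Compounds at final 10^−5 to 10^−10 M were added in triplicate for 72 h. MTT was then added for 4 h, formazan dissolved in DMSO, and absorbance read at 570 nm to derive GI50.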

[2] = system: HCC827 (human non-small cell lung cancer cells); assay: MTT cancer cell growth inhibition; type: cell-based; conditions: Homo sapiens, HCC827, 72 h, MTT, 72 hours incubation, HCC827 cells; read-out: GI50 HCC827
In short: as §1

[3] = system: K562 (human leukemia cells); assay: MTT cancer cell growth inhibition; type: cell-based; conditions: Homo sapiens, K562, 72 h, MTT, 72 hours incubation, K562 cells; read-out: GI50 K562
In short: as §1

[4] = system: KBM-5 (human chronic myelogenous leukemia); assay: MTT cancer cell growth inhibition; type: cell-based; conditions: Homo sapiens, KBM5, 72 h, MTT, 72 hours incubation, KBM-5 cells; read-out: GI50 KBM-5
In short: as §1

[5] = system: N-87 (human gastric cancer cells); assay: MTT cancer cell growth inhibition; type: cell-based; conditions: Homo sapiens, 72 h, MTT, 72 hours incubation, N-87 cells; read-out: GI50 N-87
In short: as §1

[6] = system: PANC-1 (Pac-1, human pancreatic cancer cells); assay: MTT cancer cell growth inhibition; type: cell-based; conditions: MTT
In short: as §1

[7] = system: lncap (prostate cancer cells); assay: MTT cancer cell growth inhibition; type: cell-based; conditions: Homo sapiens, LNCaP, 72 h, MTT
In short: as §1

HDAC3 = HDAC3 (Homo sapiens, UniProt O15379); assay: HDAC biochemical activity measurement (fluorescent substrate deacetylation);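 also: fluorogenic acetyl-lysine substrate (20 µM) deacetylated by HDAC3, then developer added for 15 min at room temperature, release of fluorophore read at excitation 360 nm, emission 460 nm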
HDAC3, sequence (O15379 whole entry, species assumed): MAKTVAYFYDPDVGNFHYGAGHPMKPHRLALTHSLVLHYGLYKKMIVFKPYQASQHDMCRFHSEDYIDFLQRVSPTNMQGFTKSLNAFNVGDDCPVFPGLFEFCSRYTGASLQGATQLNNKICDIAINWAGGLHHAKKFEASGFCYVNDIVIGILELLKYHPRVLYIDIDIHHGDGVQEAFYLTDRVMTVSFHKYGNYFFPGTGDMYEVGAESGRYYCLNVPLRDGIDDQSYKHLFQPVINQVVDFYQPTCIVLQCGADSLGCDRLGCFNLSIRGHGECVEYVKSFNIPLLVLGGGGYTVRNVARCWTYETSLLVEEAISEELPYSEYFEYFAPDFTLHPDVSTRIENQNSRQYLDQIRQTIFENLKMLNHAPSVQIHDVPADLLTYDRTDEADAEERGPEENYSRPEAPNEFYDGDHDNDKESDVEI
HDAC3, sequence (Q9Y618 395-489 partner limits assumed, species assumed): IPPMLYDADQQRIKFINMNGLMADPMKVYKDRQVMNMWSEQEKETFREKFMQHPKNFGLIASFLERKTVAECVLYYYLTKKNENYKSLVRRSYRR
Description: (§2) The chemical activity of the compound is determined according to the degree of deacetylation inhibition of the HDAC enzyme. This experiment measured the degree of deacetylation related to tumor proliferation and metastasis of HDAC1, HDAC2, HDAC3, HDAC8, HDAC11 five subtypes HDAC enzymes. After the substrate containing an acetylated lysine side chain and HDAC enzyme are labeled with a fluorescent label, the fluorescent substrate is de acetyl. The fluorescent labeled substrate is cleaved by the enzyme, and the fluorescent substance is released, which generates 460 nm emission light under the excitation of 360 nm light.
(§3) HDAC substrate was diluted with reaction buffer to 200M (reaction concentration of 20M), the HDAC enzyme was diluted to the appropriate concentration, then added different concentrations of the test compounds and acted at 37° C. 30 minutes, and then added the same volume of 2-times concentration substrate developing solution (developer), incubated at room temperature for 15 minutes.

HDAC11 = target: T2, HDAC11 (Homo sapiens, UniProt Q96DB2); assay: as above;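 also: HDAC11 enzyme acting on an acetyl-lysine fluorogenic substrate, then a developer frees the fluorophore, read at excitation 360 nm and emission 460 nm, IC50 over a compound dilution series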
T2 sequence (Q96DB2 1-347): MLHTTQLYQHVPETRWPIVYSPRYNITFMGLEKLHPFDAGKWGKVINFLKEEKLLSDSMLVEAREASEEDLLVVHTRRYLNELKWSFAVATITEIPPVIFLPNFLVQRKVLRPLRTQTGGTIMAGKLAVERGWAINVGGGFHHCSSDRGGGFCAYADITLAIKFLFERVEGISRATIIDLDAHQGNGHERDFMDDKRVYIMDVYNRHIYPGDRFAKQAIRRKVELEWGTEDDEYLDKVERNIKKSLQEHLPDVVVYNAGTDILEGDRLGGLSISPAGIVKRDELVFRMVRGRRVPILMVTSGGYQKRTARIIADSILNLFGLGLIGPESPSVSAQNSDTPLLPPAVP
Description: as §2, §3

[8] = Homo sapiens, PANC-1, 72 h, 72 hours incubation, read-out: GI50 PAN
[9] = 72 hours, present invention, read-out: GI50 lncap, a
[10] = read-out: IC50 HDAC3, HDAC3, 37° C. 30 minutes
[11] = read-out: IC50 HDAC11, HDAC11, 37° C. 30 minutes
[12] = Homo sapiens, PANC-1, 72 h, 72 hours, present invention, read-out: GI50 PANC-1, a
[13] = 72 hours incubation, read-out: GI50 lnca

SMILES | IC50 (HDAC8) [µM] | GI50 [1] [µM] | GI50 [2] [µM] | GI50 [3] [µM] | GI50 [4] [µM] | GI50 [5] [µM] | GI50 [6, 8] [µM] | GI50 ([6]; 72 hours, present invention, read-out: GI50 PANC-1, a) [µM] | GI50 [7, 9] [µM] | IC50 (HDAC3; [10]) [µM] | IC50 (HDAC11; [11]) [µM] | GI50 [6, 12] [µM] | IC50 (HDAC3) [µM] | IC50 (HDAC11) [µM] | GI50 [7, 13] [µM]
C/C=C1\NC(=O)c2cccc(n2)CNC(=O)C[C@@H](/C=C/CCSC(=O)CCCCCCC)OC(=O)[C@H](C(C)C)NC1=O [Compound 1] | 0.03 | 0.122 | 0.179 | 0.078 | 0.037 | 0.018 | 0.02 | 0.32 | 0.009 | 0.035 | 0.38 |  |  |  | 
C/C=C1\NC(=O)c2cccc(n2)CNC(=O)C[C@@H](/C=C/CCSC(=O)CCCC)OC(=O)[C@H](C(C)C)NC1=O [Compound 4] | 0.161 | 0.031 | 0.022 | 0.061 | 0.074 | 0.053 | 0.06 |  |  | 0.152 | 0.201 |  |  |  | 
C/C=C1\NC(=O)c2cccc(n2)CNC(=O)C[C@@H](/C=C/CCSC(=O)CCC)OC(=O)[C@H](C(C)C)NC1=O [Compound 5] | 0.067 | 0.023 | 0.055 | 0.032 | 0.072 | 0.037 | 0.06 |  |  | 0.049 | 0.111 |  |  |  | 
C/C=C1\NC(=O)c2cccc(n2)CNC(=O)C[C@@H](/C=C/CCSC(=O)CC)OC(=O)[C@H](C(C)C)NC1=O [Compound 6] | 0.063 | 0.013 | 0.065 | 0.033 | 0.061 | 0.028 | 0.06 |  |  | 0.061 | 0.135 |  |  |  | 
C/C=C1\NC(=O)c2cccc(n2)CNC(=O)C[C@@H](/C=C/CCSC(C)=O)OC(=O)[C@H](C(C)C)NC1=O [Compound 7] | 0.039 | 0.034 | 0.054 | 0.041 | 0.049 | 0.029 |  |  | 0.003 | 0.007 | 0.011 | 0.005 |  |  | 
C/C=C1\NC(=O)c2cccc(n2)CNC(=O)C[C@@H](/C=C/CCSC=O)OC(=O)[C@H](C(C)C)NC1=O [Compound 8] | 0.041 | 0.038 | 0.041 | 0.053 | 0.051 | 0.034 | 0.08 |  |  |  |  |  | 0.051 | 0.097 | 
C/C=C1\NC(=O)c2cccc(n2)CNC(=O)C[C@@H](/C=C/CCSC(=O)CCCCCCC)OC(=O)[C@H](CC)NC1=O [Compound 9] | 0.049 | 0.026 | 0.053 | 0.083 | 0.044 | 0.035 | 0.06 |  | 0.009 | 0.034 | 0.101 | 0.06 |  |  | 
C/C=C1\NC(=O)c2cccc(n2)CNC(=O)C[C@@H](/C=C/CCSC(C)=O)OC(=O)[C@H](CC)NC1=O [Compound 10] | 0.05 | 0.024 | 0.026 | 0.073 | 0.061 | 0.038 | 0.08 |  |  |  |  |  | 0.041 | 0.103 | 
C/C=C1\NC(=O)c2cccc(n2)CNC(=O)C[C@@H](/C=C/CCSC(=O)CCCCCCC)OC(=O)[C@H](C)NC1=O [Compound 11] | 0.071 | 0.042 | 0.023 | 0.063 | 0.062 | 0.037 | 0.06 |  | 0.025 | 0.045 | 0.081 | 0.06 |  |  | 0.02
C/C=C1\NC(=O)c2cccc(n2)CNC(=O)C[C@@H](/C=C/CCSC(C)=O)OC(=O)[C@H](C)NC1=O [Compound 12] | 0.038 | 0.041 | 0.037 | 0.024 | 0.072 | 0.028 | 0.08 |  |  | 0.052 | 0.091 |  |  |  | 
C/C=C1\NC(=O)c2cccc(n2)CNC(=O)C[C@@H](/C=C/CCSC(C)=O)OC(=O)[C@H](Cc2ccccc2)NC1=O [Compound 13] | 0.159 | 0.053 | 0.029 | 0.025 | 0.084 | 0.031 | 0.07 |  |  | 0.337 | 0.094 |  |  |  | 0.1
C/C=C1\NC(=O)c2cccc(n2)CNC(=O)C[C@@H](/C=C/CCSC(=O)CCCCCCC)OC(=O)[C@H](Cc2ccccc2)NC1=O [Compound 14] | 0.057 | 0.062 | 0.018 | 0.036 | 0.094 | 0.036 | 0.53 |  | 0.2 | 0.043 | 0.103 | 0.53 |  |  | 0.2
C/C=C1\NC(=O)c2cccc(n2)CNC(=O)C[C@@H](/C=C/CCSC(C)=O)OC(=O)[C@H](CCCCN)NC1=O [Compound 15] | 0.043 | 0.038 | 0.051 | 0.026 | 0.095 | 0.029 | 2.58 |  |  | 0.057 | 0.106 |  |  |  | 0.4
C/C=C1\NC(=O)c2cccc(n2)CNC(=O)C[C@@H](/C=C/CCSC(C)=O)OC(=O)[C@H](CCCCNC(=O)OCC2c3ccccc3-c3ccccc32)NC1=O [Compound 16] | 0.061 | 0.039 | 0.049 | 0.025 | 0.082 | 0.027 | 4.1 |  |  | 0.049 | 0.095 |  |  |  | 82.1
C/C=C1\NC(=O)c2cc(F)cc(n2)CNC(=O)C[C@@H](/C=C/CCSC(=O)CCC)OC(=O)[C@H](C(C)C)NC1=O [Compound 43] | 0.043 | 0.062 |  | 0.052 | 0.081 | 0.038 |  |  |  | 0.046 | 0.094 |  |  |  | 0.03
C/C=C1\NC(=O)c2cc(F)cc(n2)CNC(=O)C[C@@H](/C=C/CCSC(=O)CCCCCCC)OC(=O)[C@H](Cc2ccccc2)NC1=O [Compound 70] | 0.034 | 0.062 |  | 0.052 | 0.093 | 0.053 |  |  |  | 0.024 | 0.097 |  |  |  | 0.03
C/C=C1\NC(=O)c2cccc(n2)CCNC(=O)C[C@@H](/C=C/CCS)OC(=O)[C@H](C(C)C)NC1=O [Compound 146] | 0.043 | 0.073 | 0.045 | 0.043 | 0.033 | 0.023 |  |  |  |  |  |  | 0.028 | 0.097 | 0.04
C/C=C1\NC(=O)c2cccc(n2)CCNC(=O)C[C@@H](/C=C/CCSC(C)=O)OC(=O)[C@H](C(C)C)NC1=O [Example 26] | 0.064 | 0.031 | 0.055 | 0.017 |  | 0.039 | 0.77 |  |  |  |  |  | 0.046 | 0.094 | 9
C/C=C1\NC(=O)c2ccc(F)c(n2)CNC(=O)C[C@@H](/C=C/CCSC(=O)CC)OC(=O)[C@H](C(C)C)NC1=O [Example 47] |  | 0.029 | 0.043 | 0.039 | 0.081 | 0.061 | 0.04 |  |  |  |  |  | 0.039 | 0.083 | 0.02
